Experimental data as given in patent US20090209536A1, “AMINOQUINAZOLINE CANNABINOID RECEPTOR MODULATORS FOR TREATMENT OF DISEASE” (KALYPSYS, INC., priority 2007, published 2009).
Like-named read-outs stand apart in the source and are kept apart here.

Columns and labels:
[1] = target: T1, human cannabinoid receptor type 1 (Homo sapiens, UniProt P21554); experiment: Human CB1 Radioligand Binding Assay (basis of selectivity, CB2 vs. CB1); settings: CB1: HEK 293 EBNA cells expressing human CB1; CB2: CHO CB2 membranes
T1 construct: purchased Perkin Elmer RBHCB1M; host or cells: HEK 293 EBNA cells
T1 sequence (P21554 whole entry): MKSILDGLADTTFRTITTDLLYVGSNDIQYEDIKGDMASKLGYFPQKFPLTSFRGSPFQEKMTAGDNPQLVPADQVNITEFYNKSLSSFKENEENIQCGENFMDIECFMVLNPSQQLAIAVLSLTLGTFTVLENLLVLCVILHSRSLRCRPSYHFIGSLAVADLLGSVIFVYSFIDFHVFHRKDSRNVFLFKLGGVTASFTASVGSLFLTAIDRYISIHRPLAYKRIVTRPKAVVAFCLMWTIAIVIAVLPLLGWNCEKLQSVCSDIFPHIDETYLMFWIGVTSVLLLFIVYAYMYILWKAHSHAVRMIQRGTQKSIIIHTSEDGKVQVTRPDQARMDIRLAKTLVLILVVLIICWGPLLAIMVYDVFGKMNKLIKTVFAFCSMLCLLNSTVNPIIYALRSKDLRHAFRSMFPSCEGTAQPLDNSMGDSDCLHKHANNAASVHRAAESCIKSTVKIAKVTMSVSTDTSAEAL
Description: 2. Human CB1 Radioligand Binding Assay
The incubation buffer was composed of 50 mM Tris-HCl pH 7.4, 2.5 mM EDTA, 5 mM MgCl2, 5.0 mg/ml fatty acid free BSA and the wash buffer was composed of 50 mM Tris-HCl pH 7.4, 2.5 mM EDTA, 5 mM MgCl2, 0.5 mg/ml fatty acid free BSA.

[2] = target: T2, human cannabinoid receptor type 2 (Homo sapiens, UniProt P34972); experiment: Human CB2 Radioligand Binding Assay; settings: membranes from stably transfected CHO CB2 cells
T2 construct: expressed in transfected cells; membrane preparation
T2 sequence (P34972 whole entry): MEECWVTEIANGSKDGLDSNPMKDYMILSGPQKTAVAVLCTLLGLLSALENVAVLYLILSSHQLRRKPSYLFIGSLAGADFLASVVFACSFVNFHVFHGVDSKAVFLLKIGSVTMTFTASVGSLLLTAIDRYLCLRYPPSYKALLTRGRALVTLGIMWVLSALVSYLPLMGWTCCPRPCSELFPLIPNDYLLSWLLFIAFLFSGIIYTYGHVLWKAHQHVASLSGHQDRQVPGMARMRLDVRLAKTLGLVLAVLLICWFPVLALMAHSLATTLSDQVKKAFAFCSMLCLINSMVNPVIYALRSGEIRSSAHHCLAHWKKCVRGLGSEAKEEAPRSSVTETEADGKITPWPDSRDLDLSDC
Procedure, shortened: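 Test compounds (10 uM final, or dose-response) competed with [3H]CP-55,940, used at the Kd determined per membrane lot, for binding to stable human CB2-CHO membranes over 90 min at 30° C in pH 7.4 Tris/EGTA/MgCl2/BSA buffer. GF/C filtration then scintillation counting; 100 nM CP-55,940 defined 100% efficacy.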

[3] = competition with [3H] CP-55,940, read-out: CB2 Ligand Binding Asssay EC50

Row | Selectivity, CB2 vs. CB1 [1] | EC50 [2, 3] [nM] | Structure (SMILES) | EC50 ([2]; CB2 Ligand Binding Asssay EC50, competition with [3H] CP-55,940) [nM]
1 | + (+ indicates > 10−fold) | < 1000 | CN1CCN(c2nc(-c3ccc(Cl)cc3)nc3ccccc23)CC1 [Example 122, 2-(4-Chlorophenyl)-4-(4-methylpiperazin-1-yl)quinazoline] | –
2 | − (− indicates ≦ 10−fold) | < 1000 | CC1CCN(c2nc(-c3ccc(Cl)cc3)nc3ccccc23)CC1 [Example 125, 2-(4-Chlorophenyl)-4-(4-methylpiperidin-1-yl)quinazoline] | –
3 | + (+ indicates > 10−fold) | < 1000 | Clc1ccc(-c2nc(N3CCOCC3)c3ccccc3n2)cc1 [Example 126, 4-(2-(4-Chlorophenyl)quinazolin-4-yl)morpholine] | –
4 | − (− indicates ≦ 10−fold) | > 1000 | Clc1ccc(-c2nc(N3CCCCC3)c3ccccc3n2)cc1 [Example 127, 2-(4-Chlorophenyl)-4-(piperidin-1-yl)quinazoline] | –
5 | + (+ indicates > 10−fold) | < 1000 | Clc1ccc(-c2nc(N3CCCC3)c3ccccc3n2)cc1 [Example 128, 2-(4-Chlorophenyl)-4-(pyrrolidin-1-yl)quinazoline] | –
6 | − (− indicates ≦ 10−fold) | < 1000 | FC(F)(F)Oc1ccc(-c2nc(N3CCCC3)c3ccccc3n2)cc1 [Example 139, 4-Pyrrolidin-1-yl-2-(4-trifluoromethoxyphenyl)quinazoline] | –
7 | − (− indicates ≦ 10−fold) | < 1000 | FC(F)(F)Oc1ccc(-c2nc(N3CCCCC3)c3ccccc3n2)cc1 [Example 140, 4-Piperidin-1-yl-2-(4-trifluoromethoxyphenyl)quinazoline] | –
8 | − (− indicates ≦ 10−fold) | > 1000 | FC(F)(F)Oc1ccc(-c2nc(N3CCOCC3)c3ccccc3n2)cc1 [Example 141, 4-Morpholin-4-yl-2-(4-trifluoromethoxyphenyl)quinazoline] | –
9 | − (− indicates ≦ 10−fold) | < 1000 | CN1CCN(c2nc(-c3ccc(OC(F)(F)F)cc3)nc3ccccc23)CC1 [Example 142, 4-(4-Methylpiperazin-1-yl)-2-(4-trifluoromethoxyphenyl)quinazoline] | –
10 | − (− indicates ≦ 10−fold) | > 1000 | CN(c1ccc(C(C)(C)C)cc1)c1nc(-c2ccc(OC(F)(F)F)cc2)nc2ccccc12 [Example 144, (4-tert-Butylphenyl)methyl-[2-(4-trifluoromethoxyphenyl)quinazolin-4-yl]amine] | –
11 | − (− indicates ≦ 10−fold) | > 1000 | Fc1ccccc1-c1nc(N2CCOCC2)c2ccccc2n1 [Example 149, 2-(2-Fluorophenyl)-4-morpholin-4-ylquinazoline] | –

More lines, now with the values behind:

Row | Structure (SMILES) | Selectivity, CB2 vs. CB1 [1] | EC50 [2, 3] [nM] | EC50 ([2]; CB2 Ligand Binding Asssay EC50, competition with [3H] CP-55,940) [nM]
12 | CN(c1ccc(C(C)(C)C)cc1)c1nc(-c2ccc(C(C)(C)C)cc2)nc2ccccc12 [Example 119, N,2-Bis(4-tert-butylphenyl)-N-methylquinazolin-4-amine] | − (− indicates ≦ 10−fold) | > 1000 | –
13 | CN(Cc1ccccc1)c1nc(-c2ccc(Cl)cc2)nc2ccccc12 [Example 120, N-Benzyl-2-(4-chlorophenyl)-N-methylquinazolin-4-amine] | − (− indicates ≦ 10−fold) | > 1000 | –
14 | Clc1ccc(-c2nc(NCc3ccccc3)c3ccccc3n2)cc1 [Example 121, N-Benzyl-2-(4-chlorophenyl)quinazolin-4-amine] | − (− indicates ≦ 10−fold) | > 1000 | –
15 | Clc1ccc(-c2nc(N3CCc4ccccc4C3)c3ccccc3n2)cc1 [Example 123, 2-(4-Chlorophenyl)-4-(3,4-dihydro-1H-isoquinolin-2-yl)quinazoline] | − (− indicates ≦ 10−fold) | > 1000 | –
16 | CC1CCCCN1c1nc(-c2ccc(Cl)cc2)nc2ccccc12 (stereo not drawn) [Example 124, 2-(4-Chlorophenyl)-4-(2-methylpiperidin-1-yl)quinazoline] | − (− indicates ≦ 10−fold) | > 1000 | –
17 | CC(C)(C)c1ccc(-c2nc(NCC3CC3)c3ccccc3n2)cc1 [Example 130, 2-(4-tert-Butylphenyl)quinazolin-4-yl cyclopropylmethylamine] | + (+ indicates > 10−fold) | < 1000 | –
18 | CN(c1nc(-c2ccc(C(C)(C)C)cc2)nc2ccccc12)C1CCCCC1 [Example 131, 2-(4-tert-Butylphenyl)quinazolin-4-yl cyclohexylmethylamine] | − (− indicates ≦ 10−fold) | < 1000 | –
19 | CN(CC1CC1)c1nc(-c2ccc(C(C)(C)C)cc2)nc2ccccc12 [Example 132, 2-(4-tert-Butylphenyl)quinazolin-4-yl cyclopropylmethyl-N-methylamine] | − (− indicates ≦ 10−fold) | < 1000 | –
20 | CC(C)(C)c1ccc(-c2nc(Nc3ccccc3Cl)c3ccccc3n2)cc1 [Example 133, 2-(4-tert-Butylphenyl)quinazolin-4-yl 2-chlorophenylamine] | − (− indicates ≦ 10−fold) | > 1000 | –
21 | CN(c1ccccc1Cl)c1nc(-c2ccc(C(C)(C)C)cc2)nc2ccccc12 [Example 134, 2-(4-tert-Butylphenyl)quinazolin-4-yl 2-chlorophenyl-N-methylamine] | − (− indicates ≦ 10−fold) | < 1000 | –
22 | c1ccc2c(N3CCCCC3)nc(C3CCCC3)nc2c1 [Example 136, 2-Cyclopentyl-4-piperidin-1-ylquinazoline] | − (− indicates ≦ 10−fold) | > 1000 | –
23 | c1ccc2c(N3CCOCC3)nc(C3CCCC3)nc2c1 [Example 137, 2-Cyclopentyl-4-morpholin-4-ylquinazoline] | − (− indicates ≦ 10−fold) | > 1000 | –
24 | CN1CCN(c2nc(C3CCCC3)nc3ccccc23)CC1 [Example 138, 2-Cyclopentyl-4-(4-methylpiperazin-1-yl)quinazoline] | + (+ indicates > 10−fold) | < 1000 | –
25 | CC(C)c1nc(N2CCCC2)c2ccccc2n1 [Example 145, 2-Isopropyl-4-pyrrolidin-1-ylquinazoline] | − (− indicates ≦ 10−fold) | > 1000 | –
26 | CC(C)c1nc(N2CCCCC2)c2ccccc2n1 [Example 146, 2-Isopropyl-4-piperidin-1-ylquinazoline] | − (− indicates ≦ 10−fold) | > 1000 | –
27 | CC(C)c1nc(N2CCOCC2)c2ccccc2n1 [Example 147, 2-Isopropyl-4-morpholin-4-ylquinazoline] | − (− indicates ≦ 10−fold) | – | > 1000
28 | CC(C)c1nc(N2CCN(C)CC2)c2ccccc2n1 [Example 148, 2-Isopropyl-4-(4-methylpiperazin-1-yl)quinazoline] | − (− indicates ≦ 10−fold) | > 1000 | –
29 | Fc1ccccc1-c1nc(N2CCCCC2)c2ccccc2n1 [Example 150, 2-(2-Fluorophenyl)-4-piperidin-1-ylquinazoline] | − (− indicates ≦ 10−fold) | < 1000 | –
30 | Fc1ccccc1-c1nc(N2CCCC2)c2ccccc2n1 [Example 151, 2-(2-Fluorophenyl)-4-pyrrolidin-1-ylquinazoline] | − (− indicates ≦ 10−fold) | < 1000 | –
